Test systems include DLD-1 colon; DMS 114 small cell lung; DMS 273 small cell lung; HOP-18 NSCLC; M19-MEL melanoma; P388 leukemia; P388/ADR leukemia; SN12K1 renal; SNB-78 CNS; LXFL 529 NSCLC; RXF-631 renal.
Holding throughout (experiment): NCI tumour cell line growth inhibition, 48 h

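Method: 48-hour compound exposure of cells in 96-well plates, five concentrations, linear interpolation of endpoints. GI50 is the concentration that inhibits growth by half. Definition used: TGI = concentration required for complete inhibition of growth.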

With `c1ccc(C(c2ccccc2)[P+](c2ccccc2)(c2ccccc2)c2ccccc2)cc1`, the TGI in the assay on DLD-1 colon was 14.2 µM; with DMS 114 small cell lung, 2.73 µM; in the assay on DMS 273 small cell lung, 2.17 µM; in the assay on HOP-18 NSCLC, 2.74 µM; in the assay on M19-MEL melanoma, 9.69 µM; in the assay with P388 leukemia, 1.89 µM. Moreover, the TGI was found to be 31.8 µM in the assay with P388/ADR leukemia, 12.3 µM in the assay with SN12K1 renal and 12.9 µM in the assay on SNB-78 CNS.

Turning to `COc1ccccc1N1C(Cl)C(=O)C1c1c[nH]c2ccccc12` (configuration not stated), the TGI with DMS 114 small cell lung, with LXFL 529 NSCLC and with M19-MEL melanoma was over 100 µM in each case.

For `NC(=O)NO`, the TGI with DLD-1 colon was over 2500 µM; with DMS 273 small cell lung, 1360 µM; in the assay with HOP-18 NSCLC, 1940 µM; in the assay on LXFL 529 NSCLC, over 2320 µM; with M19-MEL melanoma, over 2450 µM; in the assay on P388 leukemia it was 548 µM. Moreover, the TGI was 502 µM in the assay on P388/ADR leukemia, 1890 µM in the assay on SN12K1 renal and over 2500 µM in the assay with SNB-78 CNS. Moreover, the GI50 in the assay on HOP-18 NSCLC was 1130 µM.

Turning to `O=C(c1ccccc1)[C@H]1Nc2ccc(Cl)cc2[C@H]2OCCC[C@@H]12`, the TGI with DMS 114 small cell lung amounted to 37.1 µM; in the assay with DMS 273 small cell lung, 39 µM; in the assay on HOP-18 NSCLC, 55.7 µM; in the assay with LXFL 529 NSCLC it was 33.5 µM; in the assay on M19-MEL melanoma, 49.1 µM; in the assay with RXF-631 renal it was 34.5 µM. In addition, in the assay with SNB-78 CNS, the TGI came to 72.1 µM.

As for `CS/C(=N\C(=S)Nc1ccccc1)Nc1ccccc1`, the TGI with DMS 114 small cell lung was 52.6 µM; with M19-MEL melanoma it was 81 µM; with SNB-78 CNS, over 100 µM.

Values taken from PubChem BioAssay (NCI).
